Reference: publication PMC6563099, “Novel Thienopyrimidine Derivative, RP-010, Induces β-Catenin Fragmentation and Is Efficacious against Prostate Cancer Cells” (Cancers, 2019)

Tested on: zebrafish
Experiment: Zebrafish toxicity model
Assay type: in vivo
Protocol: The zebrafish toxicity studies were conducted as previously described. Five days-post fertilization larvae (5 fish/well) were exposed to vehicle or RP-010 (0, 0.3, 1, 3, 6, and 10 µM). Subsequently, the zebrafish were observed visually, and pictures were taken at 24- and 48-hour post exposure (hpe). […] The zebrafish studies were approved by the University of Toledo Institutional Animal Care and Use Committee (#105414, approved on 10/2018).

## COc1ccc(-c2nc3sc4c(c3c(=O)[nH]2)CCCC4)cc1 [RP10]
zebrafish
  Concentration well tolerated / without significant toxic effects: up to 6 µM
Zebrafish larvae, 0.3, 1, 3, 6 or 10 µM, 24 and 48 h exposure
  Mortality: did not significantly increase
